Earlier results in patent EP2525785B1, “SUSTAINED RELEASE TABLET FORMULATION CONTAINING ETODOLAC” (Turgut Laclari A.S., priority 2010, dated 2011).

Details: below pH 3

solubility: low solubility
SMILES: CCc1cccc2c3c([nH]c12)C(CC)(CC(=O)O)OCC3 (stereo not shown) [Etodolac, 2-(1,8-diethyl-4,9-dihydro-3H-pyrano[3,4-b]indole-1-il)acetic acid]
